In US20080300258A1, “ANHYDROUS CIPROFLOXACIN HYDROCHLORIDE” (priority 2007, published 2008):

Conditions: eight weeks of storage at 40 degrees C., relative humidity 75%

water intake on storage: No water intake was observed
Structure (SMILES): O=C(O)c1cn(C2CC2)c2cc(N3CCNCC3)c(F)cc2c1=O [1-cyclopropyl-6-fluoro-1,4-dihydro-4-oxo-7-(1-piperazinyl)-3-quinolinecarboxylic acid]
decomposition on storage: no significant decomposition was observed
